Results from patent US20260315434A1, “USE OF GUAIACOL SESQUITERPENE LACTONE DERIVATIVES” (NANJING UNIVERSITY OF CHINESE MEDICINE, priority 2023, published 2026).
≈ marks a conversion by molar mass, not a printed value.

How the values were obtained:
[1] = Water solubility testing of compounds (HPLC); details: deionized water, 37 °C
[2] = Conversion (release) of prodrug salts to parent compound in mouse plasma; type: in vitro ADME; details: mouse, plasma, 37 °C, read-out: Release rate (conversion to Compound 1)
Procedure: (§1) Pharmaceutically acceptable salts of guaiane-type sesquiterpene lactone derivatives were selected and evaluated for their conversion rates to Compound 1 and Compound 83 in plasma and HEPES buffer, with results shown in Tables 2-1, 2-2, 3-1, and 3-2.
Plasma Preparation: Collect mouse plasma into an EP tube pre-loaded with sodium heparin, centrifuge at 8000 rpm for 10 minutes at 4° C., and then collect the supernatant.
(§2) Sample Analysis: Dissolve 0.6 mg of the compound in 250 μL of deionized water separately. Add 250 μL of mouse serum or HEPES 7.4 solution to the sample, incubate at a constant temperature of 37° C., and collect samples at different time points. Pipette 20 μL of the sample to an EP tube, add 60 μL of methanol, vortex to mix thoroughly, and centrifuge at 12,000 rpm at 4° C. for 10 min. At 1 h, 2 h, 4 h, 8 h, and 12 h respectively, collect the supernatant for HPLC analysis. Inject 10 μL of sample and record the corresponding peak areas. Chromatographic conditions: Hanbang C18 column (4.6×250 mm, 5 μm); mobile phase: acetonitrile: […] ammonium formate solution=60:40; flow rate 1.0 mL/min; detection wavelength 210 nm; column temperature 30° C.

[3] = Conversion (release) of prodrug salts to parent compound in HEPES buffer pH 7.4; type: in vitro ADME; details: hepes buffer, pH 7.4, HEPES pH 7.4, 37 °C, read-out: Release rate (conversion to Compound 1)
Procedure: as §1
Experimental Method: Preparation of HEPES 7.4 Solution: Dissolve 1.6 g NaCl, 0.074 g KCl, 0.027 g Na2HPO4, 0.2 g glucose, and 1 g 4-(2-Hydroxyethyl)piperazine-1-ethanesulfonic acid (HEPES) solution in 90 mL distilled water. Adjust the pH to 7.4 using 0.5 M NaOH, then dilute to a final volume 100 mL with distilled water.
as §2

T cells / MDSCs = assay: Promotion of T cell proliferation in a co-culture model of MDSCs and T cells; type: cell-based, mouse; details: for activation at 1 µM: Mus musculus, T-cell, 12 h, read-out: T-cell proliferation rate (%), 1 μM, MDSCs treated 12 hours, co-culture of MDSCs and T cells, compared to the control group
Procedure: Under sterile conditions, the tibia was removed, both ends of the bone were cut, and bone marrow was repeatedly flushed into a 15 mL centrifuge tube using a 1 mL syringe filled with culture medium. Centrifuge at 1600 rpm for 5 min to collect bone marrow cells. […] The spleen cell suspension was then transferred into a 15 mL centrifuge tube. Centrifuge at 1600 rpm for 5 min to collect T cells. Wash twice with 1×PBS. Resuspend the centrifuged T cells in 1 mL PBS and add 1 mL of 10 μM CFDA-SE solution. Incubate at room temperature for 8 min. […] After drug administration, collect MDSC cells into centrifuge tubes. Centrifuge at 1600 rpm for 5 min, remove supernatant, resuspend in 1 mL fresh medium, and plate. Add 1 mL stimulated activated T cells (1:1 ratio) for 48 h co-culture. After incubation, collect cells into centrifuge tubes, wash twice with PBS, and incubate with Fc antibody at room temperature in the dark for 10 min. Add CD3-labeled flow cytometry antibody and incubate at 4° C. in the dark for 30 min. After incubation, wash cells with PBS, resuspend in 300 μL PBS, and analyze by flow cytometry.

SMILES: CC(C)N(C[C@@H]1C(=O)O[C@H]2[C@H]1CC[C@@]1(C)C[C@]13CC[C@@](C)(O)[C@H]23)C(C)C [Compound 12]
- Water-solubility [1]: 0.802 mg/mL

SMILES: C[C@@]12CC[C@@H]3[C@H](OC(=O)[C@H]3CN3CCC3)[C@@H]3[C@]1(CC[C@@]3(C)O)C2 [Compound 14]
- Water-solubility [1]: 0.460 mg/mL

SMILES: C[C@@]12CC[C@@H]3[C@H](OC(=O)[C@H]3CN3CCC(N4CCCCC4)CC3)[C@@H]3[C@]1(CC[C@@]3(C)O)C2 [Compound 16]
- Water-solubility [1]: 0.285 mg/mL

SMILES: C[C@@]12CC[C@@H]3[C@H](OC(=O)[C@H]3CN3CCC(N4CCOCC4)CC3)[C@@H]3[C@]1(CC[C@@]3(C)O)C2 [Compound 17]
- Water-solubility [1]: 0.942 mg/mL

SMILES: C[C@@]12CC[C@@H]3[C@H](OC(=O)[C@H]3CN3CCCCC3)[C@@H]3[C@]1(CC[C@@]3(C)O)C2 [Compound 24]
- metabolised at 1 h [2]: 7.7%
- metabolised at 2 h [2]: 17.1%
- metabolised at 4 h [2]: 27.7%
- metabolised at 8 h [2]: 47.8%
- metabolised at 12 h [2]: 57.9%
- degraded at 1 h [3]: 6.8%
- degraded at 2 h [3]: 15.1%
- degraded at 4 h [3]: 26.7%
- degraded at 8 h [3]: 42.8%
- degraded at 12 h [3]: 54%
- Water-solubility [1]: 300.5 mg/mL

SMILES: C[C@@]12CC[C@@H]3[C@H](OC(=O)[C@H]3CN3CCOCC3)[C@@H]3[C@]1(CC[C@@]3(C)O)C2 [Compound 25]
- metabolised at 1 h [2]: 6.8%
- metabolised at 2 h [2]: 14.1%
- metabolised at 4 h [2]: 25.7%
- metabolised at 8 h [2]: 43.8%
- metabolised at 12 h [2]: 51.8%
- degraded at 1 h [3]: 6.8%
- degraded at 2 h [3]: 14.1%
- degraded at 4 h [3]: 26.1%
- degraded at 8 h [3]: 42.8%
- degraded at 12 h [3]: 51.8%
- solubility ([1]; water, Water-solubility): 342 mg/mL (≈ 979 mM)

SMILES: CCCN(CCC)C[C@@H]1C(=O)O[C@H]2[C@H]1CC[C@@]1(C)C[C@]13CC[C@@](C)(O)[C@H]23 [Compound 29]
- metabolised at 1 h [2]: 6.8%
- metabolised at 2 h [2]: 14.2%
- metabolised at 4 h [2]: 24.6%
- metabolised at 8 h [2]: 40.2%
- metabolised at 12 h [2]: 49%
- degraded at 1 h [3]: 6.8%
- degraded at 2 h [3]: 14.2%
- degraded at 4 h [3]: 24.6%
- degraded at 8 h [3]: 40.2%
- degraded at 12 h [3]: 49.8%
- Water-solubility [1]: 289.5 mg/mL

SMILES: CCCCN(CCCC)C[C@@H]1C(=O)O[C@H]2[C@H]1CC[C@@]1(C)C[C@]13CC[C@@](C)(O)[C@H]23 [Compound 30]
- metabolised at 1 h [2]: 6.6%
- metabolised at 2 h [2]: 13.6%
- metabolised at 4 h [2]: 23.8%
- metabolised at 8 h [2]: 40.8%
- metabolised at 12 h [2]: 48.8%
- degraded at 1 h [3]: 6.6%
- degraded at 2 h [3]: 14.6%
- degraded at 4 h [3]: 23.8%
- degraded at 8 h [3]: 40.8%
- degraded at 12 h [3]: 49.8%
- Water-solubility [1]: 228.4 mg/mL

SMILES: CC(C)N(C[C@@H]1C(=O)O[C@H]2[C@H]1CC[C@@]1(C)C[C@]13CC[C@@](C)(O)[C@H]23)C(C)C [Compound 31]
- metabolised at 1 h [2]: 6.5%
- metabolised at 2 h [2]: 13.9%
- metabolised at 4 h [2]: 24.4%
- metabolised at 8 h [2]: 40.2%
- metabolised at 12 h [2]: 48.5%
- degraded at 1 h [3]: 6.7%
- degraded at 2 h [3]: 14%
- degraded at 4 h [3]: 23%
- degraded at 8 h [3]: 41.2%
- degraded at 12 h [3]: 49.5%
- Water-solubility [1]: 254.6 mg/mL

SMILES: C[C@@]12CC[C@@H]3[C@H](OC(=O)[C@H]3CN3CC4CCCC4C3)[C@@H]3[C@]1(CC[C@@]3(C)O)C2 (stereo partly shown) [Compound 32]
- metabolised at 1 h [2]: 6.3%
- metabolised at 2 h [2]: 14.4%
- metabolised at 4 h [2]: 25.2%
- metabolised at 8 h [2]: 43.2%
- metabolised at 12 h [2]: 51.4%
- degraded at 1 h [3]: 6.9%
- degraded at 2 h [3]: 15.4%
- degraded at 4 h [3]: 26.2%
- degraded at 8 h [3]: 42.2%
- degraded at 12 h [3]: 51.2%
- Water-solubility [1]: 100.8 mg/mL

SMILES: C[C@@]12CC[C@@H]3[C@H](OC(=O)[C@H]3CN3CCC3)[C@@H]3[C@]1(CC[C@@]3(C)O)C2 [Compound 33]
- metabolised at 1 h [2]: 6.9%
- metabolised at 2 h [2]: 14.8%
- metabolised at 4 h [2]: 26%
- metabolised at 8 h [2]: 42.8%
- metabolised at 12 h [2]: 50.7%
- degraded at 1 h [3]: 6.9%
- degraded at 2 h [3]: 15.8%
- degraded at 4 h [3]: 26%
- degraded at 8 h [3]: 41.8%
- degraded at 12 h [3]: 51.1%
- Water-solubility [1]: 145.5 mg/mL

SMILES: C[C@@]12CC[C@@H]3[C@H](OC(=O)[C@H]3CN3CCC4(CCCC4)CC3)[C@@H]3[C@]1(CC[C@@]3(C)O)C2 [Compound 34]
- metabolised at 1 h [2]: 7.8%
- metabolised at 2 h [2]: 17.2%
- metabolised at 4 h [2]: 28.6%
- metabolised at 8 h [2]: 47.6%
- metabolised at 12 h [2]: 58.8%
- degraded at 1 h [3]: 7%
- degraded at 2 h [3]: 16.2%
- degraded at 4 h [3]: 27.6%
- degraded at 8 h [3]: 43.6%
- degraded at 12 h [3]: 54.4%
- Water-solubility [1]: 128.6 mg/mL

SMILES: C=C1C(=O)O[C@H]2[C@H]1CCC(C)=C1CC[C@@](C)(OC(=O)N(C)C)[C@@H]12 [Compound 80]
- activation at 1 µM (T cells / MDSCs): 20 to 40%

SMILES: C=C1C(=O)O[C@H]2[C@H]1CCC(C)=C1CC[C@@](C)(OC(=O)N(CC)CC)[C@@H]12 [Compound 81]
- activation at 1 µM (T cells / MDSCs): 20 to 40%

SMILES: C=C1C(=O)O[C@H]2[C@H]1CCC(C)=C1CC[C@@](C)(OC(=O)N3CCC(C)CC3)[C@@H]12 [Compound 84]
- activation at 1 µM (T cells / MDSCs): 20 to 40%

SMILES: C=C1C(=O)O[C@H]2[C@H]1CCC(C)=C1CC[C@@](C)(OC(=O)N3CCN(C)CC3)[C@@H]12 [Compound 85]
- activation at 1 µM (T cells / MDSCs): 0 to 20%

SMILES: C=C1C(=O)O[C@H]2[C@H]1CCC(C)=C1CC[C@@](C)(OC(=O)N3CCN(CC)CC3)[C@@H]12 [Compound 86]
- activation at 1 µM (T cells / MDSCs): 20 to 40%

SMILES: C=C1C(=O)O[C@H]2[C@H]1CCC(C)=C1CC[C@@](C)(OC(=O)N3CCOCC3)[C@@H]12 [Compound 87]
- activation at 1 µM (T cells / MDSCs): > 40%

SMILES: C=C1C(=O)O[C@H]2[C@H]1CCC(C)=C1CC[C@@](C)(OC(=O)NCC(C)C)[C@@H]12 [Compound 88]
- activation at 1 µM (T cells / MDSCs): 20 to 40%

SMILES: C=C1C(=O)O[C@H]2[C@H]1CCC(C)=C1CC[C@@](C)(OC(=O)NCC(F)F)[C@@H]12 [Compound 89]
- activation at 1 µM (T cells / MDSCs): 20 to 40%

SMILES: C=C1C(=O)O[C@H]2[C@H]1CCC(C)=C1CC[C@@](C)(OC(=O)N(C)CCC)[C@@H]12 [Compound 90]
- activation at 1 µM (T cells / MDSCs): 20 to 40%

SMILES: C=C1C(=O)O[C@H]2[C@H]1CCC(C)=C1CC[C@@](C)(OC(=O)N(CC)CCC)[C@@H]12 [Compound 91]
- activation at 1 µM (T cells / MDSCs): 20 to 40%

SMILES: C=C1C(=O)O[C@H]2[C@H]1CCC(C)=C1CC[C@@](C)(OC(=O)NCCCN3CCOCC3)[C@@H]12 [Compound 92]
- activation at 1 µM (T cells / MDSCs): 20 to 40%

SMILES: C=C1C(=O)O[C@H]2[C@H]1CCC(C)=C1CC[C@@](C)(OC(=O)NCCCN3CCN(C)CC3)[C@@H]12 [Compound 93]
- activation at 1 µM (T cells / MDSCs): 20 to 40%

SMILES: C=C1C(=O)O[C@H]2[C@H]1CCC(C)=C1CC[C@@](C)(OC(=O)N3CCC(N4CCOCC4)CC3)[C@@H]12 [Compound 94]
- activation at 1 µM (T cells / MDSCs): 20 to 40%

SMILES: C=C1C(=O)O[C@H]2[C@H]1CCC(C)=C1CC[C@@](C)(OC(=O)NCCN3CCN(C)CC3)[C@@H]12 [Compound 95]
- activation at 1 µM (T cells / MDSCs): 20 to 40%

SMILES: CC1=C2CC[C@@](C)(OC(=O)N3CCCCC3)[C@@H]2[C@H]2OC(=O)[C@@H](CN3CCCC3)[C@@H]2CC1 [Compound 96]
- activation at 1 µM (T cells / MDSCs): 0 to 20%

SMILES: CC1=C2CC[C@@](C)(OC(=O)N3CCCCC3)[C@@H]2[C@H]2OC(=O)[C@@H](CN(C)C)[C@@H]2CC1 [Compound 97]
- activation at 1 µM (T cells / MDSCs): 0 to 20%

SMILES: CC1=C2CC[C@@](C)(OC(=O)N3CCCC3)[C@@H]2[C@H]2OC(=O)C(CN3CCCC3)[C@@H]2CC1 (stereo partly shown) [compound 104]
- T-cell proliferation rate (%) (T cells / MDSCs; 1 μM, MDSCs treated 12 hours, co-culture of MDSCs and T cells, compared to the control group): + (T-cell proliferation rate within the 0-20% range compared to the control group)
